Measurements as given in patent US20260284011A1, “COMPOUNDS FOR RESTORING SUSCEPTIBILITY TO BETA-LACTAM ANTIBIOTICS” (UNIVERSITY OF NOTRE DAME DU LAC, priority 2023, published 2026).
Like-named read-outs stand apart in the source and are kept apart here.

Experiments:
[1] = system: CA-263 (NRS647), MRSA, SCCmec IV, bla +; experiment: MIC determination and potentiation assay (microdilution broth); assay type: cell-based; settings: Staphylococcus aureus
Description: (§1) MICs were determined by the microdilution broth method following the Clinical & Laboratory Standards Institute (CLSI) guidelines. […] Experiments were performed in triplicate in 96-well plates with 5×10^5 CFU·mL^−1 of bacteria. […] The MIC was the concentration for which bacterial growth was not observed.

[2] = system: CA-347 (NRS648), MRSA, SCCmec II, bla +; experiment: as above; assay type: cell-based; settings: Staphylococcus aureus
Description: as §1

[3] = system: H2138 (NRS271), MRSA, SCCmec IV, bla +; experiment: as above; assay type: cell-based; settings: Staphylococcus aureus
Description: as §1

[4] = system: HFH 29568, MRSA, USA300 clone, SCCmec IV, bla +; experiment: as above; assay type: cell-based; settings: Staphylococcus aureus
Description: as §1

[5] = system: HFH 30495, MRSA, SCCmec II, bla +; experiment: as above; assay type: cell-based; settings: Staphylococcus aureus
Description: as §1

[6] = system: HIP 07930 (NRS22), MRSA/VISA, SCCmec II, bla +; experiment: as above; assay type: cell-based; settings: Staphylococcus aureus
Description: as §1

[7] = system: HIP13036 (NRS404), MRSA/VISA, SCCmec II, bla +; experiment: as above; assay type: cell-based; settings: Staphylococcus aureus
Description: as §1

[8] = system: HIP5836 (NRS4), MRSA/VISA, SCCmec II, bla +; experiment: as above; assay type: cell-based; settings: Staphylococcus aureus, agent alone
Description: as §1

[9] = system: LinR#12 (NRS119), MRSA, SCCmec IV, bla +; experiment: as above; assay type: cell-based; settings: Staphylococcus aureus
Description: as §1

[10] = system: M1712 (NRS127), MRSA, SCCmec II, bla +; experiment: as above; assay type: cell-based; settings: Staphylococcus aureus
Description: as §1

[11] = system: MSSA476 (NRS72), MSSA, bla +; experiment: as above; assay type: cell-based; settings: Staphylococcus aureus
Description: as §1

[12] = system: MW2 (NRS123), MRSA, SCCmec IV, bla +; experiment: as above; assay type: cell-based; settings: Staphylococcus aureus
Description: as §1

[13] = system: SR4035, MRSA, SCCmec IV, bla +; experiment: as above; assay type: cell-based; settings: Staphylococcus aureus
Description: as §1

[14] = system: TN-124 (NRS735), MRSA, SCCmec II, bla +; experiment: as above; assay type: cell-based; settings: Staphylococcus aureus
Description: as §1

[15] = system: various MRSA strains (NRS21, NRS70, NRS382, NRS404, HFH29568, HFH30495); experiment: Time-kill assays (FIG. 6); assay type: cell-based, Staphylococcus aureus; settings: at 24 h
Description: Time-kill assay. MRSA strains (NRS21, NRS70, NRS382, NRS404, HFH 29568, and HFH 30495) were grown overnight on tryptic soy agar plate. Bacteria were diluted in Muller-Hinton broth containing 2% NaCl to […] CFU·mL^−1. […] For MEM and CPT, cation-adjusted Muller-Hinton broth without 2% NaCl was used. Aliquots were taken at 0, 3, 6, 9, 12, and 24 h and were diluted serially for bacterial counts. The assay was done in triplicate.

FPR3757 (USA300 clone) = experiment: Time-kill assay; assay type: cell-based, Staphylococcus aureus; settings: for antibacterial activity as single-drug treatment: FIG. 3, 24 h, MEM 2 mg·L^−1, 4 8 mg·L^−1
[16] = CA-263 (NRS647), agent alone, read-out: MIC
[17] = CA-347 (NRS648), agent alone, read-out: MIC
[18] = H2138 (NRS271), agent alone, read-out: MIC
[19] = HFH 29568, agent alone, read-out: MIC
[20] = HFH 30495, agent alone, read-out: MIC
[21] = HIP 07930 (NRS22), agent alone, read-out: MIC
[22] = HIP13036 (NRS404), agent alone, read-out: MIC
[23] = LinR#12 (NRS119), agent alone, read-out: MIC
[24] = M1712 (NRS127), agent alone, read-out: MIC
[25] = MSSA476 (NRS72), agent alone, read-out: MIC
[26] = MW2 (NRS123), agent alone, read-out: MIC
[27] = SR4035, agent alone, read-out: MIC

Compound | MIC [1, 16] | MIC [2, 17] | MIC [3, 18] | MIC [4, 19] | MIC [5, 20] | MIC [6, 21] | MIC [7, 22] | MIC [8] | MIC [9, 23] | MIC [10, 24] | MIC [11, 25] | MIC [12, 26] | MIC [13, 27] | MIC [14] | reduction in bacterial growth by itself [15] | MIC [2] | MIC [3] | MIC [6] | MIC [10] | MIC [13] | also measured
CCO/N=C(\C(=O)N[C@@H]1C(=O)N2C(C(=O)[O-])=C(Sc3nc(-c4cc[n+](C)cc4)cs3)CS[C@H]12)c1nsc(N)n1 [CPT, ceftaroline] | 0.5 µg/mL | 1 µg/mL | 1 µg/mL | 1 µg/mL | 1 µg/mL | 0.25 µg/mL | 1 µg/mL | 0.25 µg/mL | 1 µg/mL | 1 µg/mL | 0.13 µg/mL | 1 µg/mL | 1 µg/mL | 1 µg/mL | Neither OXA, MEM, CPT, or compound 4 by itself showed reduction in bacterial growth |  |  |  |  |  | 
CO[C@@]1(NC(=O)Cc2cccs2)C(=O)N2C(C(=O)O)=C(COC(N)=O)CS[C@@H]21 [FOX, cefoxitin] | 32 µg/mL |  |  | 32 µg/mL | 256 µg/mL |  | 256 µg/mL | 64 µg/mL | 256 µg/mL |  | 4 µg/mL | 64 µg/mL |  | 128 µg/mL |  | 128 µg/mL | 128 µg/mL | 128 µg/mL | 128 µg/mL | 128 µg/mL | 
N#Cc1ccc2nc(SCB(O)O)n(Cc3ccc(C(F)(F)F)cc3C(F)(F)F)c2c1 [Compound 4, (((1-(2,4-bis(trifluoro-methyl)benzyl)-6-cyano-1H-benzo[d]imidazol-2-yl)thio)methyl)boronic acid] | 16 µg/mL | 16 µg/mL | 16 µg/mL | 16 µg/mL | 16 µg/mL | 16 µg/mL | 8 µg/mL | 16 µg/mL | 16 µg/mL | 16 µg/mL | 32 µg/mL | 16 µg/mL | 16 µg/mL | 16 µg/mL | Neither OXA, MEM, CPT, or compound 4 by itself showed reduction in bacterial growth |  |  |  |  |  | antibacterial activity as single-drug treatment (FPR3757 (USA300 clone)): did not show antibacterial activity
C[C@@H](O)[C@H]1C(=O)N2C(C(=O)O)=C(S[C@@H]3CN[C@H](C(=O)N(C)C)C3)[C@H](C)[C@H]12 [MEM, meropenem] | 4 µg/mL | 16 µg/mL | 16 µg/mL | 16 µg/mL | 32 µg/mL | 8 µg/mL | 8 µg/mL | 8 µg/mL | 32 µg/mL | 16 µg/mL | 0.13 µg/mL | 4 µg/mL | 16 µg/mL | 8 µg/mL | Neither OXA, MEM, CPT, or compound 4 by itself showed reduction in bacterial growth |  |  |  |  |  | antibacterial activity as single-drug treatment (FPR3757 (USA300 clone)): did not show antibacterial activity; activity of MEM by itself (FPR3757 (USA300 clone); throughout the 24-h assay): no activity
Cc1onc(-c2ccccc2)c1C(=O)N[C@@H]1C(=O)N2[C@@H]1SC(C)(C)[C@@H]2C(=O)O [OXA, oxacillin] |  |  |  |  |  |  |  |  |  |  |  |  |  | 256 µg/mL | Neither OXA, MEM, CPT, or compound 4 by itself showed reduction in bacterial growth | 256 µg/mL | 256 µg/mL | 64 µg/mL | 256 µg/mL | 128 µg/mL | MIC [1]: 64 µg/mL; MIC [4]: 64 µg/mL; MIC [5]: 512 µg/mL; MIC [7]: 256 µg/mL; MIC [9]: 512 µg/mL; MIC [11]: 0.5 µg/mL; MIC [12]: 64 µg/mL
